We go through 19 compounds from patent publication US9409908B2 (priority 2012, dated 2016).

Where a name gives a salt, the structure may show the parent alone. Read-outs that look alike come from different tables or passages of the source.

Assay [1] has as its target purified human Factor XIa (Homo sapiens (Human), UniProt P03951). Description: biochemical. The class given is biochemical.
For assay [2], the target named is purified human plasma kallikrein (Homo sapiens (Human), UniProt P03952). Kind of assay: biochemical. It counts as biochemical.
purified human plasma kallikrein, sequence (P03952 whole entry, looked up): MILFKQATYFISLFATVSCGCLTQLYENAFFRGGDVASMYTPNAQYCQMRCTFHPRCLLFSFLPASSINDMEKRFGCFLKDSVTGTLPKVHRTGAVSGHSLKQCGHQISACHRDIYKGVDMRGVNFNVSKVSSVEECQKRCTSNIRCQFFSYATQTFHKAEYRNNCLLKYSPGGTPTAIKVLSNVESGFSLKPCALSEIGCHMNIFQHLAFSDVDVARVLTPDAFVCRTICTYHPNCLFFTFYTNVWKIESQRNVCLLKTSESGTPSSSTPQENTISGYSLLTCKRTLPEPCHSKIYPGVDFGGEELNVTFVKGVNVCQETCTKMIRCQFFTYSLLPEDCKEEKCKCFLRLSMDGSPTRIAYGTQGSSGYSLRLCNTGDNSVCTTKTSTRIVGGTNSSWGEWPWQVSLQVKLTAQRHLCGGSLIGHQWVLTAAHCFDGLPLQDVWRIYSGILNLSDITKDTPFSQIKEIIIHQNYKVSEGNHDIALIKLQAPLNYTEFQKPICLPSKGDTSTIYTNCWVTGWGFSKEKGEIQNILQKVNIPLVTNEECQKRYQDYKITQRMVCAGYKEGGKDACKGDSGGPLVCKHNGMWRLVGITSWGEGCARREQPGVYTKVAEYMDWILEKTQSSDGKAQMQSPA
purified human plasma kallikrein, sequence (P03952 whole entry partner, looked up): as the sequence (P03952 whole entry, looked up) above

purified human Factor XIa, sequence (P03951 whole entry, looked up): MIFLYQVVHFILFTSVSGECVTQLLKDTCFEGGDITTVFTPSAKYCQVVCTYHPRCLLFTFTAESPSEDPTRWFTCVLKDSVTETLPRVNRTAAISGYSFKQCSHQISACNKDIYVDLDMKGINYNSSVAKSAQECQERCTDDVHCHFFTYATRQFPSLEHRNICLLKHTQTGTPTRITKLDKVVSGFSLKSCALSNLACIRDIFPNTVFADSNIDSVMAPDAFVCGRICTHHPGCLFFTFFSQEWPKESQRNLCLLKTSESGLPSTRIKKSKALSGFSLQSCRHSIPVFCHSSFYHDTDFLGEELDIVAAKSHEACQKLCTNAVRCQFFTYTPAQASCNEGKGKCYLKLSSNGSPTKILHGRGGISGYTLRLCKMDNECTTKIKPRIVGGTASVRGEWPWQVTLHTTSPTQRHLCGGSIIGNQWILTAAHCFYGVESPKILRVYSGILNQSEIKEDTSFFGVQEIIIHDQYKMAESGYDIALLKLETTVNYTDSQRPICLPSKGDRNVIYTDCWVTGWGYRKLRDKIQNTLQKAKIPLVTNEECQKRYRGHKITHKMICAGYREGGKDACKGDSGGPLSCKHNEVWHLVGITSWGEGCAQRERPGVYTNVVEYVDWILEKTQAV
purified human Factor XIa, sequence (P03951 whole entry partner, looked up): as the sequence (P03951 whole entry, looked up) above

Usually Ki stands for the dissociation constant of the complex between target and ligand, obtained from inhibition or displacement. Turning to `COC(=O)c1ccc2c(c1)-c1cccc(c1)[C@@H](N1CCC(c3c(C#N)ccc(C#N)c3F)=CC1=O)CCC[C@@H](C)C(=O)N2` [Example 168, Methyl (10R,14S)-14-[4-(3,6-dicyano-2-fluorophenyl)-6-oxo-1,2,3,6-tetrahydropyridin-1-yl]-10-methyl-9-oxo-8-azatricyclo[13.3.1.0^2,7]nonadeca-1(18),2,4,6,15(19),16-hexaene-4-carboxylate], the Ki in assay [1] (read-out: Factor XIa Ki) was > 417 nM; in assay [2] (read-out: Plasma Kallikrein Ki) it was 1920 nM.
The matching figures for `COC(=O)c1ccc2c(c1)-c1cccc(c1)[C@@H](N1CCC(c3cccc(Cl)c3F)=CC1=O)CCC[C@@H](C)C(=O)N2` [Example 169, Methyl (10R,14S)-14-[4-(3-chloro-2-fluorophenyl)-6-oxo-1,2,3,6-tetrahydropyridin-1-yl]-10-methyl-9-oxo-8-azatricyclo[13.3.1.0^2,7]nonadeca-1(18),2,4,6,15(19),16-hexaene-4-carboxylate]: > 417 nM and 768 nM.
With `COC(=O)c1ccc2c(c1)-c1cccc(c1)[C@@H](N1CCC(c3c(C#N)ccc(Cl)c3F)=CC1=O)CCC[C@@H](C)C(=O)N2` [Example 170, Methyl (10R,14S)-14-[4-(3-chloro-6-cyano-2-fluorophenyl)-6-oxo-1,2,3,6-tetrahydropyridin-1-yl]-10-methyl-9-oxo-8-azatricyclo[13.3.1.0^2,7]nonadeca-1(18),2,4,6,15(19),16-hexaene-4-carboxylate], the Ki in assay [1] (read-out: Factor XIa Ki) worked out at 46.6 nM; in assay [2] (read-out: Plasma Kallikrein Ki), 7.73 nM.
As for `COC(=O)Nc1ccc2c(c1)NC(=O)[C@H](C)CCC[C@H](N1CCC(c3c(C(C)=O)ccc(Cl)c3F)=CC1=O)c1cccc-2c1` [Example 171, Methyl N-[(10R,14S)-14-[4-(6-acetyl-3-chloro-2-fluorophenyl)-6-oxo-1,2,3,6-tetrahydropyridin-1-yl]-10-methyl-9-oxo-8-azatricyclo[13.3.1.0^2,7]nonadeca-1(18),2,4,6,15(19),16-hexaen-5-yl]carbamate], the Ki in assay [1] (read-out: Factor XIa Ki) stood at 0.17 nM; in assay [2] (read-out: Plasma Kallikrein Ki) it was 8.87 nM.
The matching figures for `COC(=O)c1ccc2c(c1)-c1cccc(c1)[C@H](N1CCC(c3c(Br)ccc(Cl)c3F)=CC1=O)CCC[C@@H](C)C(=O)N2` [Example 175, Methyl (10R,14R)-14-[4-(6-bromo-3-chloro-2-fluorophenyl)-6-oxo-1,2,3,6-tetrahydropyridin-1-yl]-10-methyl-9-oxo-8-azatricyclo[13.3.1.0^2,7]nonadeca-1(19),2,4,6,15,17-hexaene-4-carboxylate]: > 625 nM and 3810 nM.
Consider `COC(=O)Nc1ccc2c(c1)NC(=O)[C@H](C)C(F)CC[C@H](N1CCC(c3c(F)ccc(Cl)c3F)=CC1=O)c1cc-2ccn1` (stereo partly drawn) [Example 180, Methyl N-[(10S,14S)-14-[4-(3-chloro-2,6-difluorophenyl)-6-oxo-1,2,3,6-tetrahydropyridin-1-yl]-11-fluoro-10-methyl-9-oxo-8,16-diazatricyclo[13.3.1.0^2,7]nonadeca-1(19),2(7),3,5,15,17-hexaen-5-yl]carbamate], for which the Ki amounted to 0.18 nM in assay [1] (read-out: Factor XIa Ki) and 2.42 nM in assay [2] (read-out: Plasma Kallikrein Ki).
In the case of `COC(=O)Nc1ccc2c(c1)NC(=O)[C@H](C)CCC[C@H](N1CCC(c3c(-c4c[nH]nn4)ccc(Cl)c3F)=CC1=O)c1cc-2ccn1` [Example 182, Methyl N-[(10R,14S)-14-{4-[3-chloro-2-fluoro-6-(1H-1,2,3-triazol-4-yl)phenyl]-6-oxo-1,2,3,6-tetrahydropyridin-1-yl}-10-methyl-9-oxo-8,16-diazatricyclo[13.3.1.0^2,7]nonadeca-1(19),2(7),3,5,15,17-hexaen-5-yl]carbamate], the figures for the Ki in assay [1] (read-out: Factor XIa Ki) and in assay [2] (read-out: Plasma Kallikrein Ki) were 0.11 nM and 14.3 nM, respectively.
For `CC(=O)Nc1ccc(Cl)c(F)c1C1=CC(=O)N([C@H]2CCC[C@@H](C)C(=O)Nc3ccccc3-c3ccnc2c3)CC1` [Example 183, N-(4-chloro-3-fluoro-2-{1-[(10R,14S)-10-methyl-9-oxo-8,16-diazatricyclo[13.3.1.0^2,7]nonadeca-1(19),2(7),3,5,15,17-hexaen-14-yl]-6-oxo-1,2,3,6-tetrahydropyridin-4-yl}phenyl)acetamide], the Ki in assay [1] (read-out: Factor XIa Ki) came to 75.1 nM; in assay [2] (read-out: Plasma Kallikrein Ki), 297 nM.
Turning to `C[C@@H]1CCC[C@H](N2CCC(c3c(-n4cnnn4)ccc(Cl)c3F)=CC2=O)c2cc(ccn2)-c2cc(F)ccc2NC1=O` [Example 184, (10R,14S)-14-{4-[3-chloro-2-fluoro-6-(1H-1,2,3,4-tetrazol-1-yl)phenyl]-6-oxo-1,2,3,6-tetrahydropyridin-1-yl}-4-fluoro-10-methyl-8,16-diazatricyclo[13.3.1.0^2,7]nonadeca-1(19),2(7),3,5,15,17-hexaen-9-one], the Ki in assay [1] (read-out: Factor XIa Ki) was < 0.05 nM; in assay [2] (read-out: Plasma Kallikrein Ki), 2.51 nM.
On to `C[C@@H]1CCC[C@H](n2ccc(-c3c(F)ccc(Cl)c3F)cc2=O)c2cc(ccn2)-c2ccncc2NC1=O` [Example 185, (10R,14S)-14-[4-(3-chloro-2,6-difluorophenyl)-2-oxo-1,2-dihydropyridin-1-yl]-10-methyl-5,8,16-triazatricyclo[13.3.1.0^2,7]nonadeca-1(19),2(7),3,5,15,17-hexaen-9-one], for which the Ki in assay [1] was 22.8 nM; in assay [2] (Plasma Kallikrein Ki) it was 47.4 nM.
For `COC(=O)c1ccc2c(c1)-c1ccnc(c1)[C@@H](N1CCC(c3c(C(F)(F)F)ccc(Cl)c3F)=CC1=O)CCC[C@@H](C)C(=O)N2` [Example 186, Methyl (10R,14S)-14-{4-[3-chloro-2-fluoro-6-(trifluoromethyl)phenyl]-6-oxo-1,2,3,6-tetrahydropyridin-1-yl}-10-methyl-9-oxo-8,16-diazatricyclo[13.3.1.0^2,7]nonadeca-1(19),2(7),3,5,15,17-hexaene-4-carboxylate], the values for the inhibition constant (Ki) in assay [1] (read-out: Factor XIa Ki) and in assay [2] (read-out: Plasma Kallikrein Ki) were 57.9 nM and 60.5 nM, respectively.
`C[C@@H]1CCC[C@H](N2CCC(c3c(C(F)(F)F)ccc(Cl)c3F)=CC2=O)c2cc(ccn2)-c2cc(C(=O)O)ccc2NC1=O` [Example 187, (10R,14S)-14-{4-[3-chloro-2-fluoro-6-(trifluoromethyl)phenyl]-6-oxo-1,2,3,6-tetrahydropyridin-1-yl}-10-methyl-9-oxo-8,16-diazatricyclo[13.3.1.0^2,7]nonadeca-1(19),2(7),3,5,15,17-hexaene-4-carboxylic acid]: the inhibitory constant (Ki) in assay [1] (read-out: Factor XIa Ki) worked out at 0.44 nM; in assay [2] (read-out: Plasma Kallikrein Ki), 17.4 nM.
Regarding `C[C@@H]1CCC[C@H](N2CCC(c3cc(Cl)ccc3-n3ccnn3)=CC2=O)c2cc(ccn2)-c2cc(F)ccc2NC1=O` [Example 188, (10R,14S)-14-{4-[5-chloro-2-(1H-1,2,3-triazol-1-yl)phenyl]-6-oxo-1,2,3,6-tetrahydropyridin-1-yl}-4-fluoro-10-methyl-8,16-diazatricyclo[13.3.1.0^2,7]nonadeca-1(19),2(7),3,5,15,17-hexaen-9-one], the values for the Ki in assay [1] (read-out: Factor XIa Ki) and in assay [2] (read-out: Plasma Kallikrein Ki) were 1.6 nM and 23.2 nM, respectively.
Consider `COC(=O)Nc1ccc2c(c1)NC(=O)[C@H](C)CCC[C@H](N1CCC(c3c(F)ccc(Br)c3F)=CC1=O)c1cc-2ccn1` [Example 190, Methyl N-[(10R,14S)-14-[4-(3-bromo-2,6-difluorophenyl)-6-oxo-1,2,3,6-tetrahydropyridin-1-yl]-10-methyl-9-oxo-8,16-diazatricyclo[13.3.1.0^2,7]nonadeca-1(19),2,4,6,15,17-hexaen-5-yl]carbamate], for which the inhibition constant Ki worked out at 0.27 nM in assay [1] (read-out: Factor XIa Ki) and 1.11 nM in assay [2] (read-out: Plasma Kallikrein Ki).
For `COC(=O)Nc1ccc2c(c1)NC(=O)[C@H](C)CCC[C@H](N1CCC(c3c(C(C)=O)ccc(Cl)c3F)=CC1=O)c1cc(F)cc-2c1` [Example 191, Methyl N-[(10R,14S)-14-[4-(6-acetyl-3-chloro-2-fluorophenyl)-6-oxo-1,2,3,6-tetrahydropyridin-1-yl]-17-fluoro-10-methyl-9-oxo-8-azatricyclo[13.3.1.0^2,7]nonadeca-1(19),2,4,6,15,17-hexaen-5-yl]carbamate] the same measures were 0.23 nM and 19.2 nM.
For `C[C@@H]1CCC[C@H](N2CCC(c3c(F)ccc(Cl)c3F)=CC2=O)c2cc(ccn2)-c2cc(Br)c(N)cc2NC1=O` [Example 193, (10R,14S)-5-amino-4-bromo-14-[4-(3-chloro-2,6-difluorophenyl)-6-oxo-1,2,3,6-tetrahydropyridin-1-yl]-10-methyl-8,16-diazatricyclo[13.3.1.0^2,7]nonadeca-1(19),2(7),3,5,15,17-hexaen-9-one, 2 TFA salt], the Ki came to 1.02 nM in assay [1] (read-out: Factor XIa Ki) and 3.91 nM in assay [2] (read-out: Plasma Kallikrein Ki).
Turning to `C[C@@H]1CCC[C@H](N2CCC(c3c(F)ccc(Cl)c3F)=CC2=O)c2cc(ccn2)-c2ccc(Nc3cccnc3)cc2NC1=O` [Example 195, (10R,14S)-14-[4-(3-chloro-2,6-difluorophenyl)-6-oxo-1,2,3,6-tetrahydropyridin-1-yl]-10-methyl-5-[(pyridin-3-yl)amino]-8,16-diazatricyclo[13.3.1.0^2,7]nonadeca-1(19),2(7),3,5,15,17-hexaen-9-one, 3 TFA salt], the Ki worked out at 0.47 nM in assay [1] (read-out: Factor XIa Ki) and 2.96 nM in assay [2] (read-out: Plasma Kallikrein Ki).
Take `C[C@@H]1CCC[C@H](N2CCC(c3c(F)ccc(Cl)c3F)=CC2=O)c2cc(ccn2)-c2ccc(Nc3cccnn3)cc2NC1=O` [Example 196, (10R,14S)-14-[4-(3-chloro-2,6-difluorophenyl)-6-oxo-1,2,3,6-tetrahydropyridin-1-yl]-10-methyl-5-[(pyridazin-3-yl)amino]-8,16-diazatricyclo[13.3.1.0^2,7]nonadeca-1(19),2(7),3,5,15,17-hexaen-9-one, 2 TFA salt]: the Ki in assay [1] (read-out: Factor XIa Ki) is 0.8 nM; in assay [2] (read-out: Plasma Kallikrein Ki), 1.52 nM.
`C[C@@H]1CCC[C@H](N2CCC(c3c(F)ccc(Cl)c3F)=CC2=O)c2cc(ccn2)-c2cc(C(=O)O)c(N)cc2NC1=O` [Example 198, (10R,14S)-5-amino-14-[4-(3-chloro-2,6-difluorophenyl)-6-oxo-1,2,3,6-tetrahydropyridin-1-yl]-10-methyl-9-oxo-8,16-diazatricyclo[13.3.1.0^2,7]nonadeca-1(19),2,4,6,15,17-hexaene-4-carboxylic acid, 2 TFA salt]: the Ki in assay [1] (read-out: Factor XIa Ki) was < 0.05 nM; in assay [2] (read-out: Plasma Kallikrein Ki), 1 nM.
